Measured values published in PubChem BioAssay (NCI).
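Test compounds were applied to cells in 96-well plates for 48 hours at 5 doses. Abbreviation: GI50, concentration required for 50% inhibition of growth. TGI is the concentration that stops growth completely.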

Tests used:
Test in all cases: NCI-60 cell line screen, 48 h
[1] = system: HCT-15 colon
[2] = system: MOLT-4 leukemia
[3] = system: NCI-H460 lung
[4] = system: NCI/ADR-RES ovarian
[5] = system: PC-3 prostate
[6] = system: RPMI-8226 leukemia
[7] = system: SK-MEL-28 melanoma
[8] = system: TK-10 renal
[9] = system: U251 CNS
[10] = system: SK-OV-3 ovarian

| SMILES | TGI [1] | TGI [2] | TGI [3] | TGI [4] | TGI [5] | TGI [6] | TGI [7] | TGI [8] | TGI [9] | TGI [10] | GI50 [1] | GI50 [2] | GI50 [3] | GI50 [4] | GI50 [5] | GI50 [6] | GI50 [7] | GI50 [8] | GI50 [9] |
| --- | --- | --- | --- | --- | --- | --- | --- | --- | --- | --- | --- | --- | --- | --- | --- | --- | --- | --- | --- |
| O=C(c1ccccc1)n1c2ccc(Br)cc2c2nc3ccccc3nc21 | > 100 µM | > 100 µM | > 100 µM | > 100 µM | > 100 µM | > 100 µM | > 100 µM | > 100 µM | > 100 µM | – | – | – | – | – | – | – | – | – | – |
| CCc1n[nH]c(=O)n1-c1ccncc1 | > 100 µM | > 100 µM | > 100 µM | > 100 µM | > 100 µM | > 100 µM | > 100 µM | > 100 µM | > 100 µM | – | – | – | – | – | – | – | – | – | – |
| CCOC(=O)N/N=C(/N)Cc1ccc(Cl)cc1 | > 100 µM | > 100 µM | – | > 100 µM | > 100 µM | > 100 µM | > 100 µM | > 100 µM | > 100 µM | > 100 µM | – | – | – | – | – | – | – | – | – |
| NS(=O)(=O)c1cc2c(cc1Cl)NC(C(=O)NNC(=O)c1ccncc1)=NS2(=O)=O | > 100 µM | > 100 µM | > 100 µM | – | – | – | > 100 µM | > 100 µM | – | > 100 µM | – | – | – | – | – | – | – | – | – |
| O=C(Nc1nc2ccc([N+](=O)[O-])cc2s1)c1cc([N+](=O)[O-])ccc1Cl | 8.3 µM | > 100 µM | – | 8.23 µM | – | 9.8 µM | – | 32 µM | 12.1 µM | 13.6 µM | – | – | – | – | – | – | – | – | – |
| Cc1cccc2c1Oc1ncccc1C2NC(=O)CN(C)C (configuration not stated) | > 10 µM | > 10 µM | > 10 µM | > 10 µM | > 10 µM | – | – | > 10 µM | > 10 µM | > 10 µM | – | – | – | – | – | – | – | – | – |
| Cc1cc(N(CCCl)CCCl)ccc1/C=N\NC(=O)c1cccnc1 | > 100 µM | 39.2 µM | 23.3 µM | 48.7 µM | > 100 µM | 59 µM | > 100 µM | 36.2 µM | > 100 µM | – | 21.9 µM | 8.19 µM | 0.685 µM | 13.7 µM | 22.7 µM | 20.1 µM | 43.4 µM | 11.2 µM | 21.6 µM |
| CCOC(=O)Oc1ccc2[nH]c3c(C)cc(N)c(C)c3c2c1 | > 100 µM | > 100 µM | > 100 µM | – | – | > 100 µM | > 100 µM | > 100 µM | – | – | – | – | – | – | – | – | – | – | – |
| CC(=O)OC/C=C/Cn1nc(Br)c(=O)[nH]c1=O | > 100 µM | > 100 µM | > 100 µM | > 100 µM | > 100 µM | > 100 µM | > 100 µM | > 100 µM | > 100 µM | – | – | – | – | – | – | – | – | – | – |
| CCOC(=O)C1=C(O)c2c(OC)ccc(OC)c2C(=O)C1=O | > 100 µM | > 100 µM | > 100 µM | – | – | > 100 µM | > 100 µM | > 100 µM | > 100 µM | > 100 µM | – | – | – | – | – | – | – | – | – |
| O=[N+]([O-])c1cccc2c1[nH]c1c(-c3ccccc3)nccc12 | > 38.5 µM | 4.4 µM | > 100 µM | 4.44 µM | – | > 100 µM | 21.9 µM | – | > 30.3 µM | 7.75 µM | – | – | – | – | – | – | – | – | – |
| O=C1CSC(c2cccc(Oc3ccccc3)c2)N1c1cc(Cl)ccc1Cl (configuration not stated) | 58.6 µM | 57.8 µM | 43.2 µM | 77.4 µM | 52.5 µM | – | > 100 µM | 55.1 µM | 33.2 µM | > 100 µM | – | – | – | – | – | – | – | – | – |
| O=P1(C(O)c2ccccc2)N(Cc2ccccc2)[C@@H]2CCCC[C@H]2N1Cc1ccccc1 (some centres not stated) | > 100 µM | 49.1 µM | > 100 µM | > 100 µM | 89.1 µM | – | > 100 µM | > 100 µM | > 100 µM | > 100 µM | – | – | – | – | – | – | – | – | – |
| CC(C)[C@H](NC(=O)OCc1ccccc1)C(=O)N[C@H](/C=C/C(=O)OC(C)(C)C)CO | > 100 µM | > 100 µM | > 100 µM | > 100 µM | > 100 µM | – | > 100 µM | > 100 µM | – | > 100 µM | – | – | – | – | – | – | – | – | – |
| O=C(NCc1ccc(Cl)c(Cl)c1)c1nc2ccccc2nc1NCc1ccc(Cl)c(Cl)c1 | > 100 µM | – | > 100 µM | > 100 µM | > 100 µM | – | > 100 µM | > 100 µM | > 100 µM | – | – | – | – | – | – | – | – | – | – |
| CC(=O)OCc1cc2c(s1)C(=O)c1sccc1C2=O | 0.303 µM | – | 0.322 µM | 0.413 µM | 0.563 µM | – | 0.0721 µM | 3.73 µM | 0.706 µM | 3.3 µM | – | – | – | – | – | – | – | – | – |
| CCCCCNC(=O)OC1CCn2c1nc1c2C(=O)C(C)=C(N2CC2)C1=O (configuration not stated) | 4.45 µM | 43.8 µM | 1.05 µM | 10.4 µM | 2.39 µM | > 100 µM | 2.78 µM | 12.5 µM | 4.7 µM | – | – | – | – | – | – | – | – | – | – |
